Test results taken from patent US20230250096A1, “SUBSTITUTED PHENYL-1H-PYRROLO[2,3-c] PYRIDINE DERIVATIVES” (Janssen Pharmaceutica NV, priority 2021, published 2023).

Columns and labels:
[1] = biological target: T1, menin/MLL (terbium chelate-labeled menin, FITC-MBM1 peptide) (Homo sapiens, UniProt O00255, T541A); test: Menin/MLL homogenous time-resolved fluorescence (HTRF) assay; type: binding; conditions: 30 min incubation
T1 construct: Menin (a.a 1-610-6xhis tag, 2.3 mg/mL in 20 mM Hepes)
T1 sequence (O00255 with tags, fused parts or gaps T541A): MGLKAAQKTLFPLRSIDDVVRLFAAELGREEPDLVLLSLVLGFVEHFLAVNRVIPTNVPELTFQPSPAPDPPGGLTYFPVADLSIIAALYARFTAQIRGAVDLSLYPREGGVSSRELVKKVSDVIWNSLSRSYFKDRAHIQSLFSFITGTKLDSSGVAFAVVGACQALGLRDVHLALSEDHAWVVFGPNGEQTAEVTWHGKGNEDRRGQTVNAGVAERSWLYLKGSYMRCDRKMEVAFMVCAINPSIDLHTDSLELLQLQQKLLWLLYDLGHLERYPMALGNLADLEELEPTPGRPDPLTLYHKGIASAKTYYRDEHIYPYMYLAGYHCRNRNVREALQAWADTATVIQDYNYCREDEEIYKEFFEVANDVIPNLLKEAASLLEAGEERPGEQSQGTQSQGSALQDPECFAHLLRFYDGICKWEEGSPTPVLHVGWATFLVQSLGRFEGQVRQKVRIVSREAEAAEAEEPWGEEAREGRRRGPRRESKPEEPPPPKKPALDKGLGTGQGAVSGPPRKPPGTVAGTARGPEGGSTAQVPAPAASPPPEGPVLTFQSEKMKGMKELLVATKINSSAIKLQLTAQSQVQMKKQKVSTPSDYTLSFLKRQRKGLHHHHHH
How it was run: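 Terbium-labeled menin (a.a. 1-610, His-tagged; […]) pre-incubated 30 min with compound, then 75 nM FITC-MBM1 peptide added for 15 min at ambient temperature in Tris pH 7.5 buffer, 0.5% DMSO. HTRF 520/490 nm ratio read; IC50 from 11-point four-fold titrations, typically from 10 μM.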

[2] = system: MEIS1 mRNA expression; test: MEIS1 mRNA expression assay (Quantigene Singleplex) in MOLM14 cells; type: cell-based, human; conditions: 48 hours incubation
How it was run: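 MOLM14 cells, 3,750/well, exposed to increasing compound concentrations for 48 h. MEIS1 mRNA measured by QuantiGene Singleplex branched-DNA hybridization (lysis 45 min, hybridization 18–22 h, both 55 °C), normalized to RPL28. IC50 fitted to background-corrected fold change versus DMSO.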

SMILES | IC50 [1] | IC50 ([2]; Homo sapiens, MOLM-14, 48 h) | IC50 [2]
COCCN(C)CCCC(C(C)C)N1CCC(Cc2cn(-c3ccc(F)cc3C(=O)N(C)C(C)C)c3cncc(F)c23)C1 (stereo not drawn) [Compound 6] | 0.288 nM | 49 nM | 
COC[C@H](C1CCCCO1)N1CC[C@@H](Cc2cn(-c3ccc(F)cc3C(=O)N(C)C(C)C)c3cncc(C)c23)C1 (single isomer, unassigned) [Compound 165b] | 0.07 nM | 38 nM | 
CC(=O)N1CCC(N2CC[C@H](Cc3cn(-c4ccc(F)cc4C(=O)N(C)C(C)C)c4cncc(C)c34)C2)C(C)C1 (single isomer, unassigned) [Compound 137a] | 0.063 nM |  | 14 nM
CC(=O)N1CC2CC(C1)C2N1CC[C@H](Cc2cn(-c3ccc(F)cc3C(=O)N(C)C(C)C)c3cncc(C)c23)C1 (stereo partly drawn) [Compound 208] | 0.147 nM | 281 nM | 
Cc1cncc2c1c(C[C@@H]1CCN(C[C@H]3CCNC(=O)CC3)C1)cn2-c1ccc(F)cc1C(=O)N1[C@H](C)CC[C@H]1C (single isomer, unassigned) [Compound 352a] | 0.102 nM | 13 nM | 
COCCN(C)CCCC(C(C)C)N1CC[C@H](Cc2cn(-c3ccc(F)cc3C(=O)N(C)C(C)C)c3cncc(C)c23)C1 (single isomer, unassigned) [Compound 2] | 0.049 nM | 3 nM | 

Continued, values first:

IC50 [1] | IC50 ([2]; Homo sapiens, MOLM-14, 48 h) | IC50 [2] | SMILES
~0.094 nM | 71 nM |  | COCC(=O)N1CCC(CN2CC[C@@H](Cc3cn(-c4ccc(F)cc4C(=O)N(C)C(C)C)c4cncc(C)c34)C2)CC1 (single isomer, unassigned) [Compound 136]
0.061 nM |  | 8 nM | CC(=O)N1CCC(CN2CCC(Cc3cn(-c4ccc(F)cc4C(=O)N(C)C(C)C)c4cncc(C)c34)C2C)CC1 (stereo not drawn) [Compound 228]
0.151 nM | 258 nM |  | CN=[S@](=O)(c1cc(F)ccc1-n1cc(C[C@@H]2CCN(CC3CCN(C(C)=O)CC3)C2)c2c(C)cncc21)C(C)C (single isomer, unassigned) [Compound 128a]
